Assay results published in the supplement of paper PMC7214452.

Tests used:
Test in all cases: normalized area under the dose-response curve (viability relative to DMSO control) (fraction); higher = less sensitive (more viable cells)
Settings in all cases: exposure time not given
AMO1 (cancer type: MM) = tested on: AMO1 (cancer type: MM)
Experimental: (§1)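 25 myeloma and 15 non-Hodgkin lymphoma cell lines were exposed to each of 76 drugs as 7-point log dilutions (0.01 nM–10 µM) in duplicate. Viability was read with CellTiter-Glo and normalised to DMSO (0.1%) and staurosporine (10 µM) plate controls. Normalised AUC was calculated by the trapezoidal method relative to the negative control.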

EJM (cancer type: MM) = tested on: EJM (cancer type: MM)
Experimental: as §1

FR4 (cancer type: MM) = tested on: FR4 (cancer type: MM)
Experimental: as §1

[1] = tested on: Granta-519 (cancer type: Mantle)
Experimental: as §1

[2] = tested on: HuT 78 (cancer type: TCL)
Experimental: as §1

JJN3 (cancer type: MM) = tested on: JJN3 (cancer type: MM)
Experimental: as §1

[3] = tested on: JVM2 (cancer type: Mantle)
Experimental: as §1

[4] = tested on: JeKo-1 (cancer type: Mantle)
Experimental: as §1

KMS11 (cancer type: MM) = tested on: KMS11 (cancer type: MM)
Experimental: as §1

[5] = tested on: KMS12PE (cancer type: MM)
Experimental: as §1

KMS18 (cancer type: MM) = tested on: KMS18 (cancer type: MM)
Experimental: as §1

KMS26 (cancer type: MM) = tested on: KMS26 (cancer type: MM)
Experimental: as §1

[6] = tested on: KMS28BM (cancer type: MM)
Experimental: as §1

[7] = tested on: KMS28PE (cancer type: MM)
Experimental: as §1

KMS34 (cancer type: MM) = tested on: KMS34 (cancer type: MM)
Experimental: as §1

[8] = tested on: Karpas-299 (cancer type: TCL)
Experimental: as §1

L363 (cancer type: MM) = tested on: L363 (cancer type: MM)
Experimental: as §1

LP1 (cancer type: MM) = tested on: LP1 (cancer type: MM)
Experimental: as §1

MM1.R (cancer type: MM) = tested on: MM1.R (cancer type: MM)
Experimental: as §1

MM1.S (cancer type: MM) = tested on: MM1.S (cancer type: MM)
Experimental: as §1

[9] = tested on: Mino (cancer type: Mantle)
Experimental: as §1

My-La (cancer type: TCL) = tested on: My-La (cancer type: TCL)
Experimental: as §1

[10] = tested on: NCI-H929 (cancer type: MM)
Experimental: as §1

[11] = tested on: OCI-LY1 (cancer type: DLBCL)
Experimental: as §1

[12] = tested on: OCI-LY19 (cancer type: DLBCL)
Experimental: as §1

[13] = tested on: OCI-LY3 (cancer type: DLBCL)
Experimental: as §1

[14] = tested on: OCI-MY5 (cancer type: MM)
Experimental: as §1

[15] = tested on: OCI-MY5/CRBN (cancer type: MM)
Experimental: as §1

[16] = tested on: OCI-MY5/Vec (cancer type: MM)
Experimental: as §1

[17] = tested on: OCI-MY7 (cancer type: MM)
Experimental: as §1

OPM2 (cancer type: MM) = tested on: OPM2 (cancer type: MM)
Experimental: as §1

[18] = tested on: RPMI 8226 (cancer type: MM)
Experimental: as §1

SKMM2 (cancer type: MM) = tested on: SKMM2 (cancer type: MM)
Experimental: as §1

[19] = tested on: SR-786 (cancer type: TCL)
Experimental: as §1

[20] = tested on: SU-DHL1 (cancer type: TCL)
Experimental: as §1

[21] = tested on: SU-DHL2 (cancer type: DLBCL)
Experimental: as §1

[22] = tested on: SU-DHL6 (cancer type: DLBCL)
Experimental: as §1

Se-Ax (cancer type: TCL) = tested on: Se-Ax (cancer type: TCL)
Experimental: as §1

U266 (cancer type: MM) = tested on: U266 (cancer type: MM)
Experimental: as §1

XG2 (cancer type: MM) = tested on: XG2 (cancer type: MM)
Experimental: as §1

In the case of Nc1nc(F)nc2c1ncn2[C@@H]1O[C@H](COP(=O)(O)O)[C@@H](O)[C@@H]1O [Fludarabine phosphate], the “normalized area under the dose-response curve” value (“normalized area” below) (AMO1 (cancer type: MM)) is reported as 0.813, the “normalized area” value (EJM (cancer type: MM)) is reported as 0.882 and the “normalized area” value (FR4 (cancer type: MM)) is reported as 0.858. For the same molecule, the “normalized area” value [1] was 0.949, the “normalized area” value [2] was 0.911 and the “normalized area” value (JJN3 (cancer type: MM)) was 0.934. For the same molecule, the “normalized area” value [3] was 0.855, the “normalized area” value [4] was 0.912 and the “normalized area” value (KMS11 (cancer type: MM)) was 0.746. The “normalized area” value [5] was 0.94, the “normalized area” value (KMS18 (cancer type: MM)) was 0.894 and the “normalized area” value (KMS26 (cancer type: MM)) was 0.863. The “normalized area” value [6] was 0.834, the “normalized area” value [7] was 0.767 and the “normalized area” value (KMS34 (cancer type: MM)) was 0.785. The “normalized area” value [8] was 0.885, the “normalized area” value (L363 (cancer type: MM)) was 0.781 and the “normalized area” value (LP1 (cancer type: MM)) was 0.938. The “normalized area” value (MM1.R (cancer type: MM)) was 0.92, the “normalized area” value (MM1.S (cancer type: MM)) was 0.87 and the “normalized area” value [9] was 0.844. The “normalized area” value (My-La (cancer type: TCL)) was 0.879, the “normalized area” value [10] was 0.9 and the “normalized area” value [11] was 0.866. The “normalized area” value [12] was 1.02, the “normalized area” value [13] was 0.962 and the “normalized area” value [14] was 0.788. For the same molecule, the “normalized area” value [15] was 0.972, the “normalized area” value [16] was 1 and the “normalized area” value [17] was 0.95. The “normalized area” value (OPM2 (cancer type: MM)) was 0.859, the “normalized area” value [18] was 0.767 and the “normalized area” value (SKMM2 (cancer type: MM)) was 0.88. For the same molecule, the “normalized area” value [19] was 0.914, the “normalized area” value [20] was 0.888 and the “normalized area” value [21] was 0.918. For the same molecule, the “normalized area” value [22] was 0.927, the “normalized area” value (Se-Ax (cancer type: TCL)) was 0.798 and the “normalized area” value (U266 (cancer type: MM)) was 0.812. For the same molecule, the “normalized area” value (XG2 (cancer type: MM)) was 0.857.

In the case of CNC(=O)c1cc(Oc2ccc(NC(=O)Nc3ccc(Cl)c(C(F)(F)F)c3)cc2)ccn1 [Sorafenib], the “normalized area” value (AMO1 (cancer type: MM)) is reported as 0.578, the “normalized area” value (EJM (cancer type: MM)) is reported as 0.663 and the “normalized area” value (FR4 (cancer type: MM)) is reported as 0.594. The “normalized area” value [1] was 0.877, the “normalized area” value [2] was 0.704 and the “normalized area” value (JJN3 (cancer type: MM)) was 0.435. The “normalized area” value [3] was 0.747, the “normalized area” value [4] was 0.922 and the “normalized area” value (KMS11 (cancer type: MM)) was 0.535. The “normalized area” value [5] was 0.6, the “normalized area” value (KMS18 (cancer type: MM)) was 0.471 and the “normalized area” value (KMS26 (cancer type: MM)) was 0.634. For the same molecule, the “normalized area” value [6] was 0.611, the “normalized area” value [7] was 0.752 and the “normalized area” value (KMS34 (cancer type: MM)) was 0.239. The “normalized area” value [8] was 0.812, the “normalized area” value (L363 (cancer type: MM)) was 0.578 and the “normalized area” value (LP1 (cancer type: MM)) was 0.495. The “normalized area” value (MM1.R (cancer type: MM)) was 0.61, the “normalized area” value (MM1.S (cancer type: MM)) was 0.57 and the “normalized area” value [9] was 0.872. For the same molecule, the “normalized area” value (My-La (cancer type: TCL)) was 0.836, the “normalized area” value [10] was 0.57 and the “normalized area” value [11] was 0.913. For the same molecule, the “normalized area” value [12] was 0.873, the “normalized area” value [13] was 0.955 and the “normalized area” value [14] was 0.459. The “normalized area” value [15] was 0.589, the “normalized area” value [16] was 0.499 and the “normalized area” value [17] was 0.59. The “normalized area” value (OPM2 (cancer type: MM)) was 0.539, the “normalized area” value [18] was 0.546 and the “normalized area” value (SKMM2 (cancer type: MM)) was 0.56. For the same molecule, the “normalized area” value [19] was 0.824, the “normalized area” value [20] was 0.576 and the “normalized area” value [21] was 0.901. The “normalized area” value [22] was 0.937, the “normalized area” value (Se-Ax (cancer type: TCL)) was 0.655 and the “normalized area” value (U266 (cancer type: MM)) was 0.45. The “normalized area” value (XG2 (cancer type: MM)) was 0.543.

CN(C)C/C=C/C(=O)Nc1cc2c(Nc3ccc(F)c(Cl)c3)ncnc2cc1O[C@H]1CCOC1 [Afatinib] was tested, and the “normalized area” value (AMO1 (cancer type: MM)) was 0.562, the “normalized area” value (EJM (cancer type: MM)) was 0.66 and the “normalized area” value (FR4 (cancer type: MM)) was 0.685. The “normalized area” value [1] was 0.69, the “normalized area” value [2] was 0.496 and the “normalized area” value (JJN3 (cancer type: MM)) was 0.57. For the same molecule, the “normalized area” value [3] was 0.497, the “normalized area” value [4] was 0.531 and the “normalized area” value (KMS11 (cancer type: MM)) was 0.53. For the same molecule, the “normalized area” value [5] was 0.53, the “normalized area” value (KMS18 (cancer type: MM)) was 0.822 and the “normalized area” value (KMS26 (cancer type: MM)) was 0.848. For the same molecule, the “normalized area” value [6] was 0.682, the “normalized area” value [7] was 0.529 and the “normalized area” value (KMS34 (cancer type: MM)) was 0.461. The “normalized area” value [8] was 0.636, the “normalized area” value (L363 (cancer type: MM)) was 0.521 and the “normalized area” value (LP1 (cancer type: MM)) was 0.637. For the same molecule, the “normalized area” value (MM1.R (cancer type: MM)) was 0.49, the “normalized area” value (MM1.S (cancer type: MM)) was 0.5 and the “normalized area” value [9] was 0.643. The “normalized area” value (My-La (cancer type: TCL)) was 0.74, the “normalized area” value [10] was 0.63 and the “normalized area” value [11] was 0.796. The “normalized area” value [12] was 0.739, the “normalized area” value [13] was 0.819 and the “normalized area” value [14] was 0.372. The “normalized area” value [15] was 0.548, the “normalized area” value [16] was 0.477 and the “normalized area” value [17] was 0.62. For the same molecule, the “normalized area” value (OPM2 (cancer type: MM)) was 0.692, the “normalized area” value [18] was 0.467 and the “normalized area” value (SKMM2 (cancer type: MM)) was 0.642. For the same molecule, the “normalized area” value [19] was 0.709, the “normalized area” value [20] was 0.558 and the “normalized area” value [21] was 0.758. The “normalized area” value [22] was 0.811, the “normalized area” value (Se-Ax (cancer type: TCL)) was 0.604 and the “normalized area” value (U266 (cancer type: MM)) was 0.801. The “normalized area” value (XG2 (cancer type: MM)) was 0.496.

CC1(COc2ccc3c(c2)ncn3-c2ccc3cccc(N4CCC(N)CC4)c3n2)COC1 [Crenolanib] was tested, and the “normalized area” value (AMO1 (cancer type: MM)) was 0.325, the “normalized area” value (EJM (cancer type: MM)) was 0.436 and the “normalized area” value (FR4 (cancer type: MM)) was 0.59. For the same molecule, the “normalized area” value [1] was 0.91, the “normalized area” value [2] was 0.569 and the “normalized area” value (JJN3 (cancer type: MM)) was 0.481. The “normalized area” value [3] was 0.672, the “normalized area” value [4] was 0.746 and the “normalized area” value (KMS11 (cancer type: MM)) was 0.488. The “normalized area” value [5] was 0.53, the “normalized area” value (KMS18 (cancer type: MM)) was 0.45 and the “normalized area” value (KMS26 (cancer type: MM)) was 0.616. The “normalized area” value [6] was 0.46, the “normalized area” value [7] was 0.407 and the “normalized area” value (KMS34 (cancer type: MM)) was 0.423. The “normalized area” value [8] was 0.855, the “normalized area” value (L363 (cancer type: MM)) was 0.459 and the “normalized area” value (LP1 (cancer type: MM)) was 0.409. For the same molecule, the “normalized area” value (MM1.R (cancer type: MM)) was 0.53, the “normalized area” value (MM1.S (cancer type: MM)) was 0.52 and the “normalized area” value [9] was 0.818. The “normalized area” value (My-La (cancer type: TCL)) was 0.779, the “normalized area” value [10] was 0.45 and the “normalized area” value [11] was 0.704. The “normalized area” value [12] was 0.861, the “normalized area” value [13] was 0.773 and the “normalized area” value [14] was 0.269. The “normalized area” value [15] was 0.549, the “normalized area” value [16] was 0.541 and the “normalized area” value [17] was 0.53. For the same molecule, the “normalized area” value (OPM2 (cancer type: MM)) was 0.452, the “normalized area” value [18] was 0.464 and the “normalized area” value (SKMM2 (cancer type: MM)) was 0.663. The “normalized area” value [19] was 0.879, the “normalized area” value [20] was 0.49 and the “normalized area” value [21] was 0.949. The “normalized area” value [22] was 0.894, the “normalized area” value (Se-Ax (cancer type: TCL)) was 0.594 and the “normalized area” value (U266 (cancer type: MM)) was 0.426. The “normalized area” value (XG2 (cancer type: MM)) was 0.339.
